Assay results published in paper PMC7332102, “Ubiquitin activation is essential for schizont maturation in Plasmodium falciparum blood-stage development” (PLoS Pathogens, 2020).

Biological target: T1, PfUBA1 (ubiquitin activating enzyme, E1; PF3D7_1225800) (Plasmodium falciparum, UniProt Q8I5F9)
T1 construct: Thr39 to Lys1140, N-terminal His10-tag, insect cells; with ubiquitin (Cy5-labelled, M1C)
Test: Cy5-ubiquitin~E1 thioesterification gel assay with recombinant PfUBA1
Format: biochemical

T1 sequence (Q8I5F9 entry or part of it): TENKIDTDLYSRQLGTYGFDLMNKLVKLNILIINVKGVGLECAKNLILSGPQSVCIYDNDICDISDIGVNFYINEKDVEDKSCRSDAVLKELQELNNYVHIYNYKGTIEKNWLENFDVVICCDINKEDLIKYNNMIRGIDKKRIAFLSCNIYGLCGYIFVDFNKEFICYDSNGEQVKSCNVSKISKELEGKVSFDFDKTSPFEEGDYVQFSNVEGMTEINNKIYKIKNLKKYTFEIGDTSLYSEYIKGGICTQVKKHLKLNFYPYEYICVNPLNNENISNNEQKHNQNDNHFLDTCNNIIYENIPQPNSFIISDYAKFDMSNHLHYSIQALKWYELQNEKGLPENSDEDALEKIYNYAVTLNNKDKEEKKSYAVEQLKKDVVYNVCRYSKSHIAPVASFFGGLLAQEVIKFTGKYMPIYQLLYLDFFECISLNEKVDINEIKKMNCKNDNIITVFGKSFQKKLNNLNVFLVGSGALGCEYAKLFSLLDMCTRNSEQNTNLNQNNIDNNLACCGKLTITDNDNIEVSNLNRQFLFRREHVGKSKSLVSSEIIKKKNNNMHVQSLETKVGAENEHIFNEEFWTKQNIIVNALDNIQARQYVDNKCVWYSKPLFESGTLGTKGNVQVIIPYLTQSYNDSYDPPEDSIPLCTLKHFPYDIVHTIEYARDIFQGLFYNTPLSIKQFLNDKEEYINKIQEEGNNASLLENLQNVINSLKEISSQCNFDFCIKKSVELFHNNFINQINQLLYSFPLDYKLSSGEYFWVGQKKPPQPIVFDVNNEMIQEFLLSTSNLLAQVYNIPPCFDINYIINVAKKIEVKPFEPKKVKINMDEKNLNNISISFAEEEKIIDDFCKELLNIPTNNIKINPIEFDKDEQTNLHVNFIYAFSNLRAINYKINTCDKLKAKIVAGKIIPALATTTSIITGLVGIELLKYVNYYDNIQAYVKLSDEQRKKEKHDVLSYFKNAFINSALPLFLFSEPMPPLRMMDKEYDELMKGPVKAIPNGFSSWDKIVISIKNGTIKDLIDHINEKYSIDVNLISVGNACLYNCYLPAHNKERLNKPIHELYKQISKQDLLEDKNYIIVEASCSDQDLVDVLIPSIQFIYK

SMILES | IC50
NS(=O)(=O)OC[C@@H]1C[C@@H](n2ccc3c(N[C@H]4CCc5ccccc54)ncnc32)C[C@@H]1O [MLN4924] | 47 ± 5 µM
NS(=O)(=O)OC[C@H]1C[C@@H](Nc2ccnc3cc(-c4cccc(SC(F)(F)F)c4)nn23)[C@H](O)[C@@H]1O [MLN7243] | 1.4 ± 0.2 µM
